Counter-ions that a name gives are not always drawn.
Assay: Purity of the aerosol versus drug foil temperature (Method 2)
Type: physicochemical
Settings: Devices A, 1.0 mg coated
Experimental: Solutions were analysed by UPLC with water (ammonium formate/formic acid) and acetonitrile as mobile phase using UV detection at 275 nm as acquisition wavelength.
This method is based on the US Pharmacopeia “Sampling the Delivered Dose from Metered-Dose Inhalers” of the “Metered-Dose Inhalers and Dry Powder Inhalers” section.
The mouthpiece of the device to be tested was tightly attached to a mouthpiece adapter connected to an end of a 12 cm sample connection tube which at the other end has attached a filter support cap having a ø 47 mm, 2.2 μm pore size, quartz filter (QM-A, Whatman) which was connected to a pump to create an airflow which triggers the flow sensor and the foil substrate is heated.
The material in the filter and the sample connection tube was extracted with methanol and analysed as in Method 1.
The foil substrates of Devices A were coated with 1.0 mg of apomorphine HCl and tested as in Method 2 at different drug foil temperatures (2 devices per temperature point except 310° C. where 4 devices were used). The devices are triggered at a 30 mL/min airflow.

In the case of `CN1CCc2cccc3c2[C@H]1Cc1ccc(O)c(O)c1-3` [apomorphine HCl], the TAerosol purity (drug foil 260 °C) is reported as 98.4 ± 0.6%, the TAerosol purity (drug foil 290 °C) is reported as 96.4 ± 0.9% and the TAerosol purity (drug foil 310 °C) is reported as 95 ± 1%. It also gave a TAerosol purity (drug foil 320 °C) of 90.9 ± 0.8%.

— patent US20240408325A1, “HANDHELD MEDICAL DEVICE WITH IMPROVED DELIVERY OF AEROSOL PARTICLES” (ALEXZA PHARMACEUTICALS, INC., priority 2021, published 2024)
